In US20180000085A1, “USE OF PICOLINAMIDE COMPOUNDS WITH FUNGICIDAL ACTIVITY” (DOW AGROSCIENCES LLC, priority 2014, published 2018):

Columns and labels:
Puccinia triticina = assay: Wheat brown rust (PUCCRT) disease control on wheat seedlings; format: in vivo; set-up: key to PUCCRT 3DC, HV activity at 100 ppm (% control rating) / PUCCRT disease control, 3DC / PUCCRT 1DP disease control rating, HV activity / PUCCRT 3DC disease control rating, HV activity / PUCCRT 3DC, LV activity at 125.1 g/H (% Control rating) / PUCCRT 1DP, LV activity at 125.1 g/H (% Control rating) / PUCCRT 3DC disease control rating, LV activity at 125.1 g/H / PUCCRT 1DP disease control rating, LV activity at 125.1 g/H / PUCCRT 3DC disease control rating, HV activity at 100 ppm / PUCCRT 1DP disease control rating, HV activity at 100 ppm / HV activity at 100 ppm PUCCRT 3DC (disease control rating) / LV activity at 125.1 g/H PUCCRT 1DP (disease control rating) / LV activity at 125.1 g/H PUCCRT 3DC (disease control rating): A: > 80; B: ≤ 80; C: Not Tested; D: No Activity Observed in the Reported Assay; conditions: low volume application, 125.1 g/H; for PUCCRT 1DP, LV activity at 125.1 g/H (% Control rating): 1 Day Protectant; for PUCCRT 3DC, LV activity at 125.1 g/H (% Control rating): 3 Day Curative
Zymoseptoria tritici = assay: Leaf blotch of wheat (SEPTTR) disease control on wheat seedlings; format: in vivo; set-up: key to SEPTTR 1DP, HV activity at 100 ppm (% control rating) / SEPTTR 3DC, HV activity at 100 ppm (% control rating) / SEPTTR disease control, 1DP / SEPTTR disease control, 3DC / SEPTTR 1DP disease control rating, HV activity / SEPTTR 3DC disease control rating, HV activity / SEPTTR 3DC, LV activity at 125.1 g/H (% Control rating) / SEPTTR 1DP, LV activity at 125.1 g/H (% Control rating) / SEPTTR 1DP disease control rating, LV activity at 125.1 g/H / SEPTTR 3DC disease control rating, LV activity at 125.1 g/H / SEPTTR 3DC disease control rating, HV activity at 100 ppm / SEPTTR 1DP disease control rating, HV activity at 100 ppm / HV activity at 100 ppm SEPTTR 3DC (disease control rating) / HV activity at 100 ppm SEPTTR 1DP (disease control rating) / LV activity at 125.1 g/H SEPTTR 1DP (disease control rating) / LV activity at 125.1 g/H SEPTTR 3DC (disease control rating): A: > 80; B: ≤ 80; C: Not Tested; D: No Activity Observed in the Reported Assay; conditions: low volume application, 125.1 g/H; for SEPTTR 1DP, LV activity at 125.1 g/H (% Control rating): 1 Day Protectant; for SEPTTR 3DC, LV activity at 125.1 g/H (% Control rating): 3 Day Curative

Row | Structure (SMILES) | PUCCRT 1DP, LV activity at 125.1 g/H (% Control rating) (Puccinia triticina) | PUCCRT 3DC, LV activity at 125.1 g/H (% Control rating) (Puccinia triticina) | SEPTTR 1DP, LV activity at 125.1 g/H (% Control rating) (Zymoseptoria tritici) | SEPTTR 3DC, LV activity at 125.1 g/H (% Control rating) (Zymoseptoria tritici)
1 | COCC[C@@H](OCc1ccccc1)[C@H](C)OC(=O)[C@H](C)NC(=O)c1nccc(OC)c1OCOC(C)=O [Cmpd 526] | D | B (≤ 80) | B (≤ 80) | B (≤ 80)
2 | COc1ccnc(C(=O)NC(C)C(=O)OC(C)COCC2CC2)c1OCOC(C)=O (centres unmarked) [Cmpd 527] | B (≤ 80) | B (≤ 80) | D | A (> 80)
3 | COc1ccnc(C(=O)NC(C)C(=O)OC(C)COCC2CC2)c1OCOC(=O)C(C)C (centres unmarked) [Cmpd 528] | D | D | D | B (≤ 80)
4 | COc1ccnc(C(=O)NC(C)C(=O)OC(C)COCC2CC2)c1OC(C)=O (centres unmarked) [Cmpd 529] | D | D | B (≤ 80) | B (≤ 80)
5 | COc1ccnc(C(=O)NC(C)C(=O)OC(C)COC(=O)C(C)C)c1OCOC(C)=O (centres unmarked) [Cmpd 530] | D | D | B (≤ 80) | B (≤ 80)
6 | COc1ccnc(C(=O)NC(C)C(=O)OC(C)COC(=O)C(C)C)c1OCOC(=O)C(C)C (centres unmarked) [Cmpd 531] | D | D | D | B (≤ 80)
7 | COc1ccnc(C(=O)NC(C)C(=O)OC(C)COC(=O)C(C)C)c1OC(C)=O (centres unmarked) [Cmpd 532] | D | D | B (≤ 80) | A (> 80)
8 | COc1ccnc(C(=O)NC(C)C(=O)OC(C)COCC(C)C)c1OCOC(C)=O (centres unmarked) [Cmpd 533] | D | A (> 80) | D | A (> 80)
9 | COc1ccnc(C(=O)NC(C)C(=O)OC(C)COC2CCCC2)c1OCOC(C)=O (centres unmarked) [Cmpd 534] | D | A (> 80) | D | A (> 80)
10 | COc1ccnc(C(=O)NC(C)C(=O)OC(C)COC(C)(C)C)c1OCOC(C)=O (centres unmarked) [Cmpd 535] | D | B (≤ 80) | D | B (≤ 80)
11 | COc1ccnc(C(=O)NC(C)C(=O)OC(C)COc2ccccc2)c1OC(=O)C1CC1 (centres unmarked) [Cmpd 541] | D | D | B (≤ 80) | B (≤ 80)
12 | COc1ccnc(C(=O)N[C@@H](C)C(=O)O[C@@H](C)[C@H](Oc2ccc(Cl)cc2Cl)C2CCCC2)c1OCOC(C)=O [Cmpd 551] | A (> 80) | B (≤ 80) | A (> 80) | B (≤ 80)
13 | CCC(CC)[C@@H](OCC1CC1)[C@H](C)OC(=O)[C@H](C)NC(=O)c1nccc(OC)c1OC(C)=O [Cmpd 555] | A (> 80) | A (> 80) | B (≤ 80) | A (> 80)
14 | COc1ccnc(C(=O)N[C@@H](C)C(=O)O[C@@H](C)[C@H](Oc2ccc(Cl)cc2Cl)C(C)C)c1OCOC(C)=O [Cmpd 562] | A (> 80) | A (> 80) | D | A (> 80)
15 | COc1ccnc(C(=O)N[C@H](C(=O)O[C@@H](C)[C@H](Oc2cccc(Cl)c2)C(C)C)C(C)C)c1OCOC(C)=O [Cmpd 564] | A (> 80) | A (> 80) | A (> 80) | A (> 80)
16 | COc1ccnc(C(=O)N[C@@H](CC(C)C)C(=O)O[C@@H](C)[C@H](Oc2ccc(Cl)cc2Cl)C(C)C)c1OCOC(C)=O [Cmpd 565] | B (≤ 80) | B (≤ 80) | D | B (≤ 80)
17 | COc1ccnc(C(=O)N[C@@H](C)C(=O)O[C@@H](C)[C@H](Oc2ccc(Cl)cc2Cl)C(C)C)c1OC(C)=O [Cmpd 567] | A (> 80) | A (> 80) | D | A (> 80)
18 | COc1ccnc(C(=O)N[C@@H](CC(C)C)C(=O)O[C@@H](C)[C@H](Oc2ccc(Cl)cc2Cl)C(C)C)c1OC(C)=O [Cmpd 570] | D | D | D | D
19 | COc1ccnc(C(=O)N[C@@H](C)C(=O)O[C@@H](C)[C@H](Oc2cccc(Cl)c2)C(C)C)c1OCOC(=O)C(C)C [Cmpd 571] | A (> 80) | A (> 80) | B (≤ 80) | A (> 80)
20 | COc1ccnc(C(=O)N[C@@H](C)C(=O)O[C@@H](C)[C@H](Oc2ccc(Cl)cc2Cl)C(C)C)c1OCOC(=O)C(C)C [Cmpd 572] | A (> 80) | A (> 80) | B (≤ 80) | B (≤ 80)
21 | COc1ccnc(C(=O)N[C@@H](C)C(=O)O[C@@H](C)[C@H](Oc2ccc(Cl)cc2)C(C)C)c1OCOC(=O)C(C)C [Cmpd 573] | A (> 80) | A (> 80) | A (> 80) | A (> 80)
22 | COc1ccnc(C(=O)N[C@@H](Cc2ccccc2)C(=O)O[C@@H](C)[C@H](Oc2cccc(F)c2)c2ccccc2)c1OCOC(C)=O [Cmpd 576] | A (> 80) | B (≤ 80) | B (≤ 80) | D
23 | COc1ccnc(C(=O)N[C@@H](Cc2ccccc2)C(=O)O[C@@H](C)[C@H](Oc2cccc(F)c2)c2ccccc2)c1OC(C)=O [Cmpd 577] | A (> 80) | B (≤ 80) | B (≤ 80) | D
